# Measurements: PubChem BioAssay (NCI)
# Where “and” joins values, the source holds several entries; their conditions need not be identical. Identical values can stand only once.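 1) Cells in 96-well plates. 2) Compound, 48 h, 5 concentrations. 3) Linear interpolation between surrounding doses. 4) Unreached endpoint = highest concentration. GI50 = concentration required for 50% inhibition of growth. TGI is the concentration that stops growth completely.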
# Tested on: 786-0 renal
# Experiment: inhibition of tumour cell growth, NCI panel, 48 h
row,SMILES,TGI
1,COc1ccc2c3c1O[C@H]1C(O)CCC4(O)[C@@H](C2)NCC[C@]314 (some centres undefined),> 100 µM
2,N#CSc1nc[nH]c1C(N)=O,98.8 µM
3,Cc1ccc2c(c1CCCC(C)(C)O)C(=O)C(=O)C(C(C)C)=C2O,> 100 µM
4,C=CCN1C[C@H](C)N([C@H](c2ccc(C(=O)N(CC)CCO)cc2)c2cccc(OC)c2)C[C@H]1C,> 100 µM
5,O=c1[nH]cc(COCC(F)(F)C(F)(F)C(F)(F)C(F)F)c(=O)[nH]1,> 100 µM
6,CC(=O)c1csc2c1C(=O)c1scc(C(C)=O)c1C2=O,4.12 µM
7,Cc1ccc(C2CC(c3ccco3)=NN2c2ccccc2)o1 (centres undefined),> 100 µM
8,COC(=O)C(=C/c1ccc(OC)cc1)/C(C(=O)O)=C(/C)c1ccccc1,> 100 µM
9,Nc1ccc(C(=O)NN2C(=O)C(Cl)C2c2ccccc2Cl)cc1 (centres undefined),3.35 µM
10,CCN1c2nc3ccccc3nc2N(CC)c2nc3ccccc3nc21,> 100 µM
11,CCN1CCN(c2ccc(Nc3ccnc4ccc5nn(C)nc5c34)cc2)CC1,22.6 µM
12,Cc1cccc2c1Oc1cc(Cl)ccc1C2NC(=O)CCN1CCOCC1 (centres undefined),> 100 µM
13,C[C@H]1[C@H](C)CC[C@]2(C)CC[C@]3(C)C(=C[C@@H](O)[C@@H]4[C@@]5(C)[C@H](O)[C@@H](O)[C@H](O)C(C)(C)[C@@H]5CC[C@]43C)[C@H]12,> 100 µM
14,c1cc(-c2ncc(-c3ccc4c(c3)CCCO4)o2)ccn1,> 100 µM
15,CCN(CC)CCn1nc(N)c2nc3cc(Cl)ccc3nc21,> 100 µM
16,O=C(O)c1ccc(NNc2cc(=O)[nH]c(=O)[nH]2)cc1,> 100 µM
17,COc1ccc2c(c1)CCc1c-2[nH]c2ccc(OC)cc12,> 100 µM
18,C=CCn1c(=O)n(CC=C)c(=O)n(CC=C)c1=O,> 100 µM
19,COc1cc(/C=C2\C[C@H]3[C@@H]4CC=C5C[C@@H](O)CC[C@]5(C)[C@H]4CC[C@]3(C)C2=O)cc(OC)c1OC,89.5 µM
20,CC1=C(Br)C(Br)=C(C)S1=O,55.9 µM
21,CC1(C)c2ccccc2C(=O)C12CCC(=O)CC2,> 100 µM
22,Cc1cc(C)cc(C(=N)c2ccccc2Cc2cccc3ccccc23)c1,31.8 µM
23,Cn1ccc(C(=O)NCCOCCNC(=O)c2ccn(C)c(=O)c2O)c(O)c1=O,> 100 µM
24,O=C1C(Cl)C(c2ccccc2)N1n1cnc2ccccc2c1=O (centres undefined),> 100 µM
25,CCOC(=O)C1=C(Nc2cccc(OC)c2)OCC1=O,> 100 µM
26,CNC(=S)N/N=C(C)\C(=N/NC(=S)NC)c1ccccc1,> 100 µM
27,C#CCn1ncc2c(SCc3ccccc3)ncnc21,> 100 µM
28,CCCCCC(C[N+]1(C)CCOCC1)C(=O)/C=C/c1ccccc1 (centres undefined),4.26 µM
29,CC1=CC(C2/C(=N/O)C=C(C)CC2(C)C)C(O)C(C)(C)C1 (centres undefined),31.8 µM
30,C/C(=C1/CCCC2(N=NCC2c2ccccc2)C1=O)c1ccccc1 (centres undefined),> 100 µM

# Tested on: HCT-116 colon
# Experiment: inhibition of tumour cell growth, NCI panel, 48 h
row,SMILES,TGI
1,COc1ccc2c3c1O[C@H]1C(O)CCC4(O)[C@@H](C2)NCC[C@]314 (some centres undefined),> 100 µM
2,N#CSc1nc[nH]c1C(N)=O,> 100 µM
3,CN(C)C(=O)NCCN1CCCCCc2ccccc21,> 100 µM
4,Cc1ccc2c(c1CCCC(C)(C)O)C(=O)C(=O)C(C(C)C)=C2O,> 100 µM
5,C=CCN1C[C@H](C)N([C@H](c2ccc(C(=O)N(CC)CCO)cc2)c2cccc(OC)c2)C[C@H]1C,> 100 µM
6,C=C1C(=O)O[C@H]2[C@H]1[C@@H](OC(=O)C=C(C)C)CC1=C[C@@H](C[C@@]3(C)O[C@@H]23)OC1=O,16.5 µM
7,O=c1[nH]cc(COCC(F)(F)C(F)(F)C(F)(F)C(F)F)c(=O)[nH]1,> 100 µM
8,CC(=O)c1csc2c1C(=O)c1scc(C(C)=O)c1C2=O,4.85 µM
9,O=C1NC(=O)C(CCO)(c2ccccc2)C(=O)N1,> 100 µM
10,Cc1ccc(C2CC(c3ccco3)=NN2c2ccccc2)o1 (centres undefined),> 100 µM
11,COC(=O)C(=C/c1ccc(OC)cc1)/C(C(=O)O)=C(/C)c1ccccc1,> 100 µM
12,COC(=O)c1ccc(/C=C2\N=C(C)OC2=O)cc1,> 100 µM
13,Nc1ccc(C(=O)NN2C(=O)C(Cl)C2c2ccccc2Cl)cc1 (centres undefined),16.3 µM
14,CCN1c2nc3ccccc3nc2N(CC)c2nc3ccccc3nc21,> 100 µM
15,CCN1CCN(c2ccc(Nc3ccnc4ccc5nn(C)nc5c34)cc2)CC1,18.1 µM
16,Cc1cccc2c1Oc1cc(Cl)ccc1C2NC(=O)CCN1CCOCC1 (centres undefined),> 100 µM
17,C[C@H]1[C@H](C)CC[C@]2(C)CC[C@]3(C)C(=C[C@@H](O)[C@@H]4[C@@]5(C)[C@H](O)[C@@H](O)[C@H](O)C(C)(C)[C@@H]5CC[C@]43C)[C@H]12,> 100 µM
18,c1cc(-c2ncc(-c3ccc4c(c3)CCCO4)o2)ccn1,39.3 µM
19,COc1ccnc2c1C(=O)c1nc3ccccc3c3ccnc-2c13,1.03 µM
20,CCN(CC)CCn1nc(N)c2nc3cc(Cl)ccc3nc21,> 100 µM

row,SMILES,TGI
1,O=C(O)c1ccc(NNc2cc(=O)[nH]c(=O)[nH]2)cc1,> 100 µM
2,COc1ccc2c(c1)CCc1c-2[nH]c2ccc(OC)cc12,> 100 µM
3,COC(=O)C1OC(Oc2cc(O)c3c(=O)cc(-c4ccc(O)cc4)oc3c2)C(O)C(O)C1O (centres undefined),> 100 µM
4,C=CCn1c(=O)n(CC=C)c(=O)n(CC=C)c1=O,> 100 µM
5,COc1cc(/C=C2\C[C@H]3[C@@H]4CC=C5C[C@@H](O)CC[C@]5(C)[C@H]4CC[C@]3(C)C2=O)cc(OC)c1OC,47.3 µM
6,CC1=C(Br)C(Br)=C(C)S1=O,18.2 µM
7,CC1(C)c2ccccc2C(=O)C12CCC(=O)CC2,> 100 µM
8,Cc1cc(C)cc(C(=N)c2ccccc2Cc2cccc3ccccc23)c1,23.2 µM
9,Cn1ccc(C(=O)NCCOCCNC(=O)c2ccn(C)c(=O)c2O)c(O)c1=O,> 100 µM
10,O=C1C(Cl)C(c2ccccc2)N1n1cnc2ccccc2c1=O (centres undefined),> 100 µM
11,CN(C)C(=O)OCOC(=O)N(C)C,> 100 µM
12,CCOC(=O)C1=C(Nc2cccc(OC)c2)OCC1=O,> 100 µM
13,CC(=O)OCC1OC(Nc2ncc(-c3ccc(C)cc3)s2)C(OC(C)=O)C(OC(C)=O)C1OC(C)=O (centres undefined),> 62.5 µM
14,CNC(=S)N/N=C(C)\C(=N/NC(=S)NC)c1ccccc1,> 100 µM
15,CCCCN1C=CN2c3nc4cc(C)c(C)cc4n3C(C(=O)OC)=C(C(=O)OC)C12 (centres undefined),> 100 µM
16,C#CCn1ncc2c(SCc3ccccc3)ncnc21,> 100 µM
17,CCCCCC(C[N+]1(C)CCOCC1)C(=O)/C=C/c1ccccc1 (centres undefined),11.7 µM
18,CC1=CC(C2/C(=N/O)C=C(C)CC2(C)C)C(O)C(C)(C)C1 (centres undefined),29.3 µM
19,C/C(=C1/CCCC2(N=NCC2c2ccccc2)C1=O)c1ccccc1 (centres undefined),53.3 µM

# Tested on: HL-60(TB) leukemia
# Experiment: inhibition of tumour cell growth, NCI panel, 48 h
SMILES,TGI,GI50
COc1ccc2c3c1O[C@H]1C(O)CCC4(O)[C@@H](C2)NCC[C@]314 (some centres undefined),> 100 µM,–
N#CSc1nc[nH]c1C(N)=O,6.86 µM,–
CN(C)C(=O)NCCN1CCCCCc2ccccc21,> 100 µM,–
Cc1ccc2c(c1CCCC(C)(C)O)C(=O)C(=O)C(C(C)C)=C2O,> 100 µM,–
C=CCN1C[C@H](C)N([C@H](c2ccc(C(=O)N(CC)CCO)cc2)c2cccc(OC)c2)C[C@H]1C,> 100 µM,–
C=C1C(=O)O[C@H]2[C@H]1[C@@H](OC(=O)C=C(C)C)CC1=C[C@@H](C[C@@]3(C)O[C@@H]23)OC1=O,0.977 µM and 4.9 µM,0.292 µM and 2.24 µM
O=c1[nH]cc(COCC(F)(F)C(F)(F)C(F)(F)C(F)F)c(=O)[nH]1,> 100 µM,–
CC(=O)c1csc2c1C(=O)c1scc(C(C)=O)c1C2=O,0.43 µM,–
O=C1NC(=O)C(CCO)(c2ccccc2)C(=O)N1,> 100 µM,–
Cc1ccc(C2CC(c3ccco3)=NN2c2ccccc2)o1 (centres undefined),> 100 µM,–
COC(=O)C(=C/c1ccc(OC)cc1)/C(C(=O)O)=C(/C)c1ccccc1,> 100 µM,–
COC(=O)c1ccc(/C=C2\N=C(C)OC2=O)cc1,> 100 µM,–
CCOC(=O)c1csc(NC(=O)C(C)N2CCCCC2)n1 (centres undefined),> 100 µM,–
CCN1c2nc3ccccc3nc2N(CC)c2nc3ccccc3nc21,> 100 µM,–
CCN1CCN(c2ccc(Nc3ccnc4ccc5nn(C)nc5c34)cc2)CC1,> 100 µM,–
Cc1cccc2c1Oc1cc(Cl)ccc1C2NC(=O)CCN1CCOCC1 (centres undefined),> 100 µM,–
C[C@H]1[C@H](C)CC[C@]2(C)CC[C@]3(C)C(=C[C@@H](O)[C@@H]4[C@@]5(C)[C@H](O)[C@@H](O)[C@H](O)C(C)(C)[C@@H]5CC[C@]43C)[C@H]12,> 100 µM,–
c1cc(-c2ncc(-c3ccc4c(c3)CCCO4)o2)ccn1,16 µM,–

SMILES,TGI,GI50
COc1ccnc2c1C(=O)c1nc3ccccc3c3ccnc-2c13,0.29 µM,–
CCN(CC)CCn1nc(N)c2nc3cc(Cl)ccc3nc21,> 100 µM,–
O=C(O)c1ccc(NNc2cc(=O)[nH]c(=O)[nH]2)cc1,> 100 µM,–
COC(=O)C1OC(Oc2cc(O)c3c(=O)cc(-c4ccc(O)cc4)oc3c2)C(O)C(O)C1O (centres undefined),> 100 µM,–
C=CCn1c(=O)n(CC=C)c(=O)n(CC=C)c1=O,> 100 µM,–
COc1cc(/C=C2\C[C@H]3[C@@H]4CC=C5C[C@@H](O)CC[C@]5(C)[C@H]4CC[C@]3(C)C2=O)cc(OC)c1OC,2.25 µM,–
CC1=C(Br)C(Br)=C(C)S1=O,18.1 µM,–
CC1(C)c2ccccc2C(=O)C12CCC(=O)CC2,> 100 µM,–
Cc1cc(C)cc(C(=N)c2ccccc2Cc2cccc3ccccc23)c1,33.5 µM,–
O=C1C(Cl)C(c2ccccc2)N1n1cnc2ccccc2c1=O (centres undefined),> 100 µM,–
CN(C)C(=O)OCOC(=O)N(C)C,> 31.6 µM,–
CCOC(=O)C1=C(Nc2cccc(OC)c2)OCC1=O,> 100 µM,–
CC(=O)OCC1OC(Nc2ncc(-c3ccc(C)cc3)s2)C(OC(C)=O)C(OC(C)=O)C1OC(C)=O (centres undefined),43.7 µM,–
CCCCN1C=CN2c3nc4cc(C)c(C)cc4n3C(C(=O)OC)=C(C(=O)OC)C12 (centres undefined),> 100 µM,–
CCCCCC(C[N+]1(C)CCOCC1)C(=O)/C=C/c1ccccc1 (centres undefined),37.5 µM,–
CC1=CC(C2/C(=N/O)C=C(C)CC2(C)C)C(O)C(C)(C)C1 (centres undefined),37.2 µM,–
C/C(=C1/CCCC2(N=NCC2c2ccccc2)C1=O)c1ccccc1 (centres undefined),25.6 µM,–

# Tested on: MALME-3M melanoma
# Experiment: inhibition of tumour cell growth, NCI panel, 48 h
row,SMILES,TGI
1,COc1ccc2c3c1O[C@H]1C(O)CCC4(O)[C@@H](C2)NCC[C@]314 (some centres undefined),> 100 µM
2,N#CSc1nc[nH]c1C(N)=O,56.6 µM
3,CN(C)C(=O)NCCN1CCCCCc2ccccc21,> 100 µM
4,Cc1ccc2c(c1CCCC(C)(C)O)C(=O)C(=O)C(C(C)C)=C2O,> 100 µM
